Laboratory results published in ChEMBL document CHEMBL5154746, “Antibacterial Activity of Metergoline Analogues: Revisiting the Ergot Alkaloid Scaffold for Antibiotic Discovery” (2022).
Converted amounts (≈) assume the structure as drawn.

Columns and labels:
[1] = tested on: Bacillus subtilis; test: Antibacterial activity against Bacillus subtilis 168 assessed as inhibition of bacterial growth by Muller hinton broth based microdilution assay; format: functional
[2] = tested on: Escherichia coli; test: Antibacterial activity against wild type Escherichia coli MG1655 assessed as inhibition of bacterial growth by Muller hinton broth based microdilution assay; format: functional
[3] = tested on: Salmonella typhimurium; test: Antibacterial activity against wild type Salmonella typhimurium SL1344 assessed as reduction in bacterial growth by ALM based microdilution assay; format: functional, Salmonella enterica subsp. enterica serovar Typhimurium; conditions: Salmonella enterica
[4] = tested on: Salmonella typhimurium; test: Antibacterial activity against wild type Salmonella typhimurium SL1344 assessed as reduction in bacterial growth by Muller hinton broth based microdilution assay; format: functional, Salmonella enterica subsp. enterica serovar Typhimurium; conditions: Salmonella enterica
[5] = tested on: Salmonella typhimurium; test: Antibacterial activity against Salmonella typhimurium harboring delta tolC mutant assessed as bacterial growth inhibition by Muller hinton broth based microdilution assay; format: functional, Salmonella enterica subsp. enterica serovar Typhimurium; conditions: Salmonella enterica
[6] = tested on: Staphylococcus aureus; test: Antibacterial activity against Methicillin-resistant Staphylococcus aureus USA300 assessed as inhibition of bacterial growth by Muller hinton broth based microdilution assay; format: functional
[7] = tested on: Escherichia coli; test: Antibacterial activity against wild type Escherichia coli MG1655 assessed as inhibition of bacterial growth by MOPS based broth microdilution assay; format: functional
[8] = tested on: Escherichia coli; test: Antibacterial activity against wild type Escherichia coli MG1655 harboring delta tolC mutant assessed as inhibition of bacterial growth by Muller hinton broth based microdilution assay; format: functional
[9] = tested on: Escherichia coli; test: Antibacterial activity against wild type Escherichia coli MG1655 harboring delta tolC mutant assessed as inhibition of bacterial growth by MOPS based broth microdilution assay; format: functional

| SMILES | MIC [1] [µg/mL] | MIC [2] [µg/mL] | MIC [3] [µg/mL] | MIC [4] [µg/mL] | MIC [5] [µg/mL] | MIC [6] [µg/mL] | MIC [7] [µg/mL] | MIC [8] [µg/mL] | MIC [9] [µg/mL] |
| --- | --- | --- | --- | --- | --- | --- | --- | --- | --- |
| CN1C=C2C[C@@H]3[C@H](C[C@@H](CNC(=O)C4CC4c4ccccc4)CN3C)C3C=CC=C1C23 (some centres not stated) | 64 (≈ 154 µM) | > 200 | 200 (≈ 481 µM) | > 200 | 64 (≈ 154 µM) | 64 (≈ 154 µM) | > 200 | 64 (≈ 154 µM) | 10.2 (≈ 24.6 µM) |
| CN(C)CCCNC(=O)/C=C/c1ccc(C(F)(F)F)cc1 | > 200 | > 200 | > 200 | > 200 | > 200 | > 200 | > 200 | – | 128 (≈ 426 µM) |
